Experimental data: PMC4440651, “Thymoquinone Inhibits Escherichia coli ATP Synthase and Cell Growth” (PLoS ONE, 2015)

Target: T1, E. coli F1Fo ATP synthase (F1-ATPase) (Escherichia coli, UniProt P0ABA6+P0ABB0+P0ABB4)
T1 construct: gene atpD; with F1 alpha (atpA), gamma (atpG), delta and epsilon subunits; Fo (ab2c10–14) in the membrane preparation
Assay: ATPase activity assay (liberated Pi) on purified F1 and F1Fo membranes; reversal by dilution or centrifuge column
Assay type: biochemical

With CC1=CC(=O)C(C(C)C)=CC1=O [TQ, thymoquinone] the IC50 was roughly 37 µM.
